Measurements reported in PMC5341033, “Transcriptomic insight into terpenoid and carbazole alkaloid biosynthesis, and functional characterization of two terpene synthases in curry tree (Murraya koenigii)” (Scientific Reports, 2017).

Columns and labels:
MkTPS2 = target: T1, MkTPS2 (Murraya koenigii, UniProt A0A1U9M7X9); assay: terpene synthase assay, SPME GC-MS of products; assay type: biochemical; details: 70 μM FPP; 1 mM MgCl2, 5 mM DTT, 30 mM HEPES pH 7.5, 30 °C 2 h; product (E,E)-α-farnesene
T1 construct: full-length ORF, 560 aa; E. coli Rosetta-2; Ni-NTA purified

MkTPS1 = target: T2, MkTPS1 (Murraya koenigii, UniProt A0A1U9M7Y9); assay: terpene synthase assay, SPME GC-MS of products; assay type: biochemical; details: 70 μM GPP; 1 mM MgCl2, 5 mM DTT, 30 mM HEPES pH 7.5, 30 °C 2 h; product (−)-sabinene
T2 construct: plastid transit peptide truncated at Met-40; full length 602 aa; E. coli Rosetta-2; Ni-NTA purified
T2 sequence (A0A1U9M7Y9 entry or part of it): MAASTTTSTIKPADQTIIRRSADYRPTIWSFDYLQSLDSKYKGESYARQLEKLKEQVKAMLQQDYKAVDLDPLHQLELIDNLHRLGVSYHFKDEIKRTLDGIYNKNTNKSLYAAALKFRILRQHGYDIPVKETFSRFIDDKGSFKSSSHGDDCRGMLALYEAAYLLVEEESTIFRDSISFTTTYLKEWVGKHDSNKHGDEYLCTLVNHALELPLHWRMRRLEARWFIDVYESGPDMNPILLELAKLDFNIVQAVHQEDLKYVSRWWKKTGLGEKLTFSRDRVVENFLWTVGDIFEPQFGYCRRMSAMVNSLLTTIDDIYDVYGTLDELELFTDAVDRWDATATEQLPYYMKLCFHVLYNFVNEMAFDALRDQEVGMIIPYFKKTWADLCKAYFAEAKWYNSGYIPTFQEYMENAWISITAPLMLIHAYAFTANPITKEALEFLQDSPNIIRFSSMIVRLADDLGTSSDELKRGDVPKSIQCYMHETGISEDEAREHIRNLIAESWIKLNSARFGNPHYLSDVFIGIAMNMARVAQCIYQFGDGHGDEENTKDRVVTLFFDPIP

T1 sequence (A0A1U9M7X9 entry or part of it): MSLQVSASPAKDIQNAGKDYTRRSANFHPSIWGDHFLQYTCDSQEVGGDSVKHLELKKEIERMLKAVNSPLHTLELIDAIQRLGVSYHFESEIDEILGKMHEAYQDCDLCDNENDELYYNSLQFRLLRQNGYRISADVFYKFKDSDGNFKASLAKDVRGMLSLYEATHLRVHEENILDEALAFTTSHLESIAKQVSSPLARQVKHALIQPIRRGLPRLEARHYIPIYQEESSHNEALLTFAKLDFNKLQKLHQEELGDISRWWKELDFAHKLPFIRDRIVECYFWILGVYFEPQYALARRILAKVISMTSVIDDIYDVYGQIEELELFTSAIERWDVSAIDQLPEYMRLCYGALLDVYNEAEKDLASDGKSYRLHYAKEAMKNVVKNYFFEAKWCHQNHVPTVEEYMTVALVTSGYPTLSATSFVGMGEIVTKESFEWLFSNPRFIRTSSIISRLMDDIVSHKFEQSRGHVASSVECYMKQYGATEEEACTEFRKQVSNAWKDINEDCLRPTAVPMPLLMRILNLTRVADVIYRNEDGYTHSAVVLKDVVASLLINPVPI

| SMILES | terpene synthase assay, SPME GC-MS of products (MkTPS2) | terpene synthase assay, SPME GC-MS of products (MkTPS1) |
| --- | --- | --- |
| CC(C)=CCC/C(C)=C/CC/C(C)=C/COP(=O)(O)OP(=O)(O)O [farnesyl diphosphate] | MkTPS2, the product analysis showed the formation of α-farnesene with FPP as substrate |  |
| CC(C)=CCC/C(C)=C/COP(=O)(O)OP(=O)(O)O [geranyl diphosphate] |  | MkTPS1 showed the formation of predominantly sabinene utilizing GPP as substrate |
